# Results published in US9394306B2, “Pyrazoline dione derivatives as NADPH oxidase inhibitors” (GENKYOTEX SA, priority 2009, dated 2016).
# Key:
# collagen deposition [1] = assay: Bleomycin-induced lung injury in mice, preventive model (SIRCOL collagen assay); type: in vivo; conditions: day 35
# Procedure: (§1) Control animals are subjected to the same protocol but received the same volume of intratracheal saline instead of BLM. Tracheal instillation is carried out under ketamin (80 mg/kg of body weight, i.p.) and xylazine (20 mg/kg de body weight, i.p.) anesthesia.
# (§2) […] after endotracheal BLM or saline, the animals are killed by a lethal injection of sodium pentobarbital followed by exsanguination of abdominal aorta. Lungs are weighed and processed separately for biochemical (n=10 lungs per group) and histological studies (n=5 per group) as indicated below. The animals are randomly divided into four groups: control-saline (n=8) and control+BLM (n=15); Compound Dose 1+BLM (n=15) and Compound Dose 2+BLM (N=15). Treatments vehicle or compounds are administered for 5 weeks.
# (§3) Mice are treated by daily oral administration of compound according to the invention or saline/control starting on day 0 for five weeks in the preventive model and starting on day 10 up to five weeks for the curative model. Whole lung accumulation of acid-soluble collagen is analyzed by Sircol assay.
# The broad lines of the above protocol were followed. […] 35 days after endotracheal BLM or saline, the animals are killed and lungs are processed as indicated above for quantification of collagen deposition and lung inflammation by SIRCOL assay (TebuBio, ref S1000).
# collagen deposition [2] = assay: Bleomycin-induced lung injury in mice, curative model (SIRCOL collagen assay); type: in vivo
# Procedure: as §1, §2, §3
# The broad lines of the above protocol were followed. At day 0, animals received an intratracheal injection of 0.0125 UI of bleomycin (40 μl) to produce pulmonary lesions. Curative treatment group was orally administered a compound of the invention once a day for 3.5 weeks starting from day 10 to day 35. The animals are randomly divided into six groups: control-saline (n=8); 2 groups control+BLM (n=13); Compound 3 of the invention per os 40 mg/kg+BLM (n=13); Compound 3 of the invention per os 10 mg/kg+BLM (n=13) and Pirfenidone (AQCHEM, ref P1002) at 100 mg/kg per os+BLM (n=13). One bleomycin control group was stopped at day 10, the animals were killed and collagen levels were measured. For the other groups, 35 days after endotracheal BLM or saline, the animals are killed and lungs are processed as indicated above for quantification of collagen deposition and lung inflammation as indicated above. […]
# NOX activity = test system: T1, NOX activity; assay: Amplex Red measurement of extracellular hydrogen peroxide (NOX activity) in DMSO-differentiated HL60 cells; type: cell-based, Human; conditions: DPI 10 μM, 'usually'
# T1 construct: rows headed: Residual activity of DPI-treated cells (NOX activity, % of control cells); other: Amplex Red, DPI 10 μM, 'usually'
# Procedure: Human acute myeloid leukemia cell line HL-60 was cultured in RPMI 1640 (Invitrogen) supplemented with 10% heat-inactivated calf serum, 2 mM glutamine, 100 U/mL penicillin (Sigma), and 100 μg streptomycin (Sigma) at 37° C. under a humidified atmosphere of 5% CO2. HL60 differentiation to the neutrophil phenotype was triggered by adding Me2SO (final concentration 1.25% v/v for 6 days) to the culture medium.
# Extracellular hydrogen peroxide was measured using Amplex UltraRed (Molecular Probes). Cells were trypsinized (1× Trypsin-EDTA), collected by centrifugation, and resuspended in HBSS supplemented with 1% glucose. Cells were seeded into black 96-well plates at a density of 50,000 cells in 200 μl testing buffer (HBSS 1% glucose containing 0.005 U/mL horseradish peroxidase (Roche) and 50 μM Amplex Red in the presence or absence of compounds according to the invention. As a control, DPI was included at a final concentration of 10 μM The plates were placed in the fluorescent Optima Fluorescent plate reader and kept at 37° C. during 20 min. Fluorescence was measured for […] with excitation and emission wavelengths of 544 nm and 590 nm respectively. NOX activities were expressed as % of the activity in control cells. Residual activity of DPI-treated cells was usually <10%.
# NOX activities [3] = assay: Nitroblue tetrazolium (NBT) superoxide test in cells; type: cell-based; conditions: DPI 10 μM, 'usually'
# Procedure: Intracellular and extracellular superoxide was measured by a colorimetric technique using a quantitative nitroblue tetrazolium (NBT) test. SOD-inhibitable conversion of NBT to formazan, a fine blue precipitate, in the presence of superoxide anion was measured using Fluostar Optima spectrometer (BMG labtech). Following incubation with appropriate stimuli, cells were trypsinized (1× Trypsin-EDTA), collected by centrifugation, and washed with PBS to remove medium. 5×10^5 cells were plated on 48-well plates and incubated in Hank's balanced salt solution containing 0.5 mg/mL NBT with or without 800 U/mL SOD in the presence or absence of compounds according to the invention. As a control, DPI was included at a final concentration of 10 μM. After 2.5 h, cells were fixed and washed with methanol to remove non reduced NBT. The reduced formazan was then dissolved in 230 μl of 2M potassium hydroxide and in 280 μl of dimethylsulfoxide. The absorption was measured at 630 nm. For calculation, the absorbance at 630 nm was normalized for each individual well. The mean of the four blank values was subtracted from each corrected value for each time point. NOX activities were expressed as % of the activity in control cells. Residual activity of DPI-treated cells was usually <10%.
# NOX activities [4] = assay: Chemiluminescence (luminol) ROS measurement in cells; type: cell-based; conditions: 'usually'
# Procedure: ROS was measured using the chemiluminescent probe luminol. Cells were cultured and plated as for Amplex Red except that the Amplex Red agent was replaced by 10 μg/mL luminol (Sigma 09235). Light emission was recorded continuously at 37° C. for 60 minutes using the luminescence function of the FluoStar Optima fluorescent plate reader. The mean of the four blank values was subtracted from each corrected value for each time point. NOX activities were expressed as % of the activity in control cells. Residual activity of DPI-treated cells was usually <10%.
# NOX activities [5] = assay: H2DCF-DA ROS measurement in TGF-β stimulated HUVEC; type: cell-based, Human; conditions: 'usually'
# Procedure: HUVEC are cultured in endothelial basal medium supplemented with hydrocortisone (1 μg/mL, CalbioChem), bovine brain extract (12 μg/mL), gentamicin (50 μg/mL, CalbioChem), amphotericin B (50 ng/mL, CalBioChem EGF (10 ng/mL, and 10% FCS until the fourth passage. When the fifth passage was started, cells were cultured with a lower concentration of FCS (2%) in the absence of EGF, if not indicated otherwise. All experiments were done with cells of the fifth passage. The cells were incubated with O×LDL (oxidized low-density lipoprotein) or its buffer as control for 24 h, before detection of O2^− formation.
# HUVEC were plated on coverslips and made quiescent overnight in 0.5% BSA before stimulation with TGF-β. Cells were loaded for 10 minutes with 5 μM CM-H2DCFDA in phenol-red-free medium in the dark and then treated with TGF-β (R&D Systems) in the presence or absence of compounds according to the invention. Cells were then visualized by immunofluorescence microscopy after fixation and staining of the nuclei with DAPI or examined live using confocal microscopy. DCF fluorescence was visualized at an excitation wavelength of 488 nm and emission at 515 to 540 nm. […] For calculation, the absorbance at […] was normalized to absorbance at […] for each individual well. […] NOX activities were expressed as % of the activity in control cells. […]
smiles,measurement,setting,value
"O=c1c2c3n(c(=O)cc2[nH]n1-c1ccccc1Cl)CCCN(Cc1ccccc1)C3 [Compound 3, 10-benzyl-2-(2-chlorophenyl)-2,3,8,9,10,11-hexahydro-1H-pyrazolo[4′,3′:3,4]pyrido[1,2-a][1,4]diazepine-1,5(7H)-dione]",inhibition of collagen deposition as compared to bleomycin control,collagen deposition [1]; 40 mg/kg per os once a day from day 0 for five weeks,46%
same,inhibition of collagen deposition as compared to bleomycin control,"collagen deposition [2]; 10 mg/kg per os once a day from day 10 to day 35, mice",64%
same,inhibition of collagen deposition as compared to bleomycin control,"collagen deposition [2]; 40 mg/kg per os once a day from day 10 to day 35, mice",52%
"c1ccc([I+]c2ccccc2)cc1 [DPI, Diphenyl-iodonium]","Residual activity of DPI-treated cells (NOX activity, % of control cells)",NOX activity,< 10%
same,"Residual activity of DPI-treated cells (NOX activity, % of control cells)",NOX activities [3],< 10%
same,"Residual activity of DPI-treated cells (NOX activity, % of control cells)",NOX activities [4],< 10%
same,"Residual activity of DPI-treated cells (NOX activity, % of control cells)",NOX activities [5],< 10%
Cc1ccc(=O)n(-c2ccccc2)c1 [Pirfenidone],inhibition of collagen deposition as compared to bleomycin control,collagen deposition [1]; 100 mg/kg per os once a day from day 0 for five weeks,45%
same,inhibition of collagen deposition as compared to bleomycin control,"collagen deposition [2]; 100 mg/kg per os once a day from day 10 to day 35, mice",12%
